Laboratory results: US20100203043A1, “TREATMENT AND DIAGNOSIS OF METASTATIC PROSTATE CANCER WITH INHIBITORS OF EPIDERMAL GROWTH FACTOR RECEPTOR (EGFR)” (priority 2007, published 2010)

System: LNCaP cells
Assay: Kinase activity profiling (PamChip peptide arrays) of LNCaP cells treated with synthetic androgen analog
Assay type: cell-based, human
Parameters: key to ZAP70_y492/y493 phosphopeptide fold change (log2) relative to LNCaP baseline / RASA_y460 phosphopeptide fold change (log2) relative to LNCaP baseline / RET_y1029 phosphopeptide fold change (log2) relative to LNCaP baseline / IRS2_y919 phosphopeptide fold change (log2) relative to LNCaP baseline / JAK1_y1022/y1023 phosphopeptide fold change (log2) relative to LNCaP baseline / LCK_y394 phosphopeptide fold change (log2) relative to LNCaP baseline / MET_y1230/y1234/y1235 phosphopeptide fold change (log2) relative to LNCaP baseline / PDPK1_y9 phosphopeptide fold change (log2) relative to LNCaP baseline / PDPK1_y373/y376 phosphopeptide fold change (log2) relative to LNCaP baseline / EPHB1_y778 phosphopeptide fold change (log2) relative to LNCaP baseline / ERBB2_y877 phosphopeptide fold change (log2) relative to LNCaP baseline / ERBB2_y1248 phosphopeptide fold change (log2) relative to LNCaP baseline / CDK2_t14/y_5 phosphopeptide fold change (log2) relative to LNCaP baseline / DDRl_y792/y796/y797 phosphopeptide fold change (log2) relative to LNCaP baseline / MAPK10 phosphopeptide fold change (log2) relative to LNCaP baseline / MAPK12_t183/y185 phosphopeptide fold change (log2) relative to LNCaP baseline / PECAM1_y713 phosphopeptide fold change (log2) relative to LNCaP baseline / PRRX2_y214 phosphopeptide fold change (log2) relative to LNCaP baseline / ANXA1_y20/t23 phosphopeptide fold change (log2) relative to LNCaP baseline / CD79A_y182/y188 phosphopeptide fold change (log2) relative to LNCaP baseline / CTTN1_y477/y483 phosphopeptide fold change (log2) relative to LNCaP baseline / CTTN1_y499 phosphopeptide fold change (log2) relative to LNCaP baseline / ENO2_y43 phosphopeptide fold change (log2) relative to LNCaP baseline / EPHA2_y772 phosphopeptide fold change (log2) relative to LNCaP baseline / EPHA7_y608/y614 phosphopeptide fold change (log2) relative to LNCaP baseline / EPOR_y368 phosphopeptide fold change (log2) relative to LNCaP baseline / EPOR_y426 phosphopeptide fold change (log2) relative to LNCaP baseline / FER_y714 phosphopeptide fold change (log2) relative to LNCaP baseline / FES_y713 phosphopeptide fold change (log2) relative to LNCaP baseline / FGFR2_y769 phosphopeptide fold change (log2) relative to LNCaP baseline / FGFR3_y760 phosphopeptide fold change (log2) relative to LNCaP baseline / FRK_y387 phosphopeptide fold change (log2) relative to LNCaP baseline / LAT_y255 phosphopeptide fold change (log2) relative to LNCaP baseline / EGFR_y1110 phosphopeptide fold change (log2) relative to LNCaP baseline / NTRK2_y702/y706/y707 phosphopeptide fold change (log2) relative to LNCaP baseline / PDGFRB_y579/y581 phosphopeptide fold change (log2) relative to LNCaP baseline / PDGFRB_y716 phosphopeptide fold change (log2) relative to LNCaP baseline / PIK3R1_y607/s608 phosphopeptide fold change (log2) relative to LNCaP baseline / PXN_y31 phosphopeptide fold change (log2) relative to LNCaP baseline / PXN_y118 phosphopeptide fold change (log2) relative to LNCaP baseline / TEC_y519 phosphopeptide fold change (log2) relative to LNCaP baseline / MST1R_y1353 phosphopeptide fold change (log2) relative to LNCaP baseline / MST1R_y1356/y1360 phosphopeptide fold change (log2) relative to LNCaP baseline / FAK_y576/y577 phosphopeptide fold change (log2) relative to LNCaP baseline / FAK2_y579/y580 phosphopeptide fold change (log2) relative to LNCaP baseline / LAT_y200 phosphopeptide fold change (log2) relative to LNCaP baseline: —: ‘-’ denotes that the change in peptide phosphorylation level was not found to be significant
Details: ‘androgenic’: LNCaP cells, 100 nM R1881, 48 h
Procedure: Cell culture conditions. The LNCaP and OHS cell lines were routinely held in RPMI 1640 medium supplemented with 10% fetal bovine serum (FBS) and 2.0 mM glutamine, defined as growth medium. Different ratios of LNCaP cells to OHS cells had been tested in a series of cocultures to find the optimal culturing conditions [Bratland et al., 2003]. Seventy-two hours before start of experimental incubations, LNCaP and OHS cells were seeded in a 10:1 ratio in RPMI containing 2% charcoal-treated FBS and glutamine. After 48 h, this medium was changed to RPMI containing 0.5% charcoal-treated FBS and glutamine, defined as experimental medium, for another 24 h before experimental incubations were started (at time 0). Monocultures of LNCaP cells were identically incubated prior to experimental incubations.
Monocultures of LNCaP, as well as LNCaP/OHS cocultures, were seeded in a total number of 1.0×10^6 cells in 75 cm2 cell flasks and invariably held in 10 ml medium throughout different incubations. At time 0 (start of the experimental incubations), monocultured LNCaP cells were refed with experimental medium supplemented with 100 nM R1881 (methyltrienolone; Life Science Products), a synthetic androgen analog, or with medium conditioned by OHS cells. The conditioned medium had been collected from OHS monocultures that had been seeded in a 10-fold higher number per volume medium compared to the corresponding cell number of the LNCaP/OHS cocultures, and grown for 48 h (relative to time 0) in experimental medium. This medium was subsequently diluted 1:10 in either fresh experimental medium or in medium obtained from standard LNCaP monocultures after 48 h of incubation (relative to time 0) in experimental medium, before the application onto monocultured LNCaP cells.
To be able to analyze LNCaP signaling pathways activated by direct contact with OHS cells, LNCaP cells were isolated from cocultures by immunomagnetic selection [Forus et al., 1999, Fodstad et al., 2001, Bruland et al., 2005, Tveito et al., 2007]. This rapid and simple procedure enables specific selection of target cells for further analytical applications. Subsequent multiplex profiling of kinase activity was performed using flow-through, porous microarrays with peptide substrates (PamChip® peptide arrays; PamGene International B.V., www.pamgene.com), a novel platform that allows rapid, real-time measurements of phosphopeptide signatures generated by the biological samples.
Androgens are critical regulators of prostate carcinoma progression. Most patients respond to androgen ablation therapy, but only temporarily, also at bone metastasis sites. Until recently, the regulatory program mediated by the androgen receptor in prostate cancer has been elusive [Dehm & Tindall, 2006]. To simulate the complex processes involved in aberrant activation of the androgen signaling axis upon disease progression of prostate cancer [Feldman & Feldman, 2001, Attard et al., 2006], our experimental setting included LNCaP cells treated with a synthetic androgen analog (R1881, 100 nM) to observe whether androgen receptor-mediated signaling pathways might be different from those activated by OHS-directed influence.
The LNCaP samples were given denotations in accordance with their biological context: ‘direct’ (cells from LNCaP/OHS cocultures), ‘paracrine 1’ (cells treated with OHS-conditioned medium mixed with fresh medium), ‘paracrine 2’ (cells treated with OHS-conditioned medium mixed with medium conditioned by LNCaP cells), and ‘androgenic’ (cells treated with the synthetic androgen analog), in addition to baseline (untreated reference cells).
To identify regulatory mechanisms underlying the affinity of prostate cancer to bone, the substrate phosphorylation state generated by each LNCaP entity (‘direct’, ‘paracrine’, ‘androgenic’) was calculated with respect to baseline. […]

Compound: C[C@]1(O)CC[C@H]2[C@@H]3CCC4=CC(=O)CCC4=C3C=C[C@@]21C [R1881, methyltrienolone]
- ANXA1_y20/t23 phosphopeptide fold change (log2) relative to LNCaP baseline: —
- CD79A_y182/y188 phosphopeptide fold change (log2) relative to LNCaP baseline: —
- CDK2_t14/y_5 phosphopeptide fold change (log2) relative to LNCaP baseline: —
- CHRNB1_y390 phosphopeptide fold change (log2) relative to LNCaP baseline: 1.57 fold change (log2)
- CREBl_y134/s133 phosphopeptide fold change (log2) relative to LNCaP baseline: 1.47 fold change (log2)
- CTTN1_y477/y483 phosphopeptide fold change (log2) relative to LNCaP baseline: —
- CTTN1_y499 phosphopeptide fold change (log2) relative to LNCaP baseline: —
- DDRl_y792/y796/y797 phosphopeptide fold change (log2) relative to LNCaP baseline: —
- EGFR_y1110 phosphopeptide fold change (log2) relative to LNCaP baseline: —
- EGFR_y1197 phosphopeptide fold change (log2) relative to LNCaP baseline: 1.94 fold change (log2)
- ENO2_y43 phosphopeptide fold change (log2) relative to LNCaP baseline: —
- EPHA2_y772 phosphopeptide fold change (log2) relative to LNCaP baseline: —
- EPHA7_y608/y614 phosphopeptide fold change (log2) relative to LNCaP baseline: —
- EPHB1_y778 phosphopeptide fold change (log2) relative to LNCaP baseline: —
- EPOR_y368 phosphopeptide fold change (log2) relative to LNCaP baseline: —
- EPOR_y426 phosphopeptide fold change (log2) relative to LNCaP baseline: —
- ERBB2_y877 phosphopeptide fold change (log2) relative to LNCaP baseline: —
- ERBB2_y1248 phosphopeptide fold change (log2) relative to LNCaP baseline: —
- ERBB4_y1284 phosphopeptide fold change (log2) relative to LNCaP baseline: 3.31 fold change (log2)
- FAK2_y579/y580 phosphopeptide fold change (log2) relative to LNCaP baseline: —
- FAK_y576/y577 phosphopeptide fold change (log2) relative to LNCaP baseline: —
- FER_y714 phosphopeptide fold change (log2) relative to LNCaP baseline: —
- FES_y713 phosphopeptide fold change (log2) relative to LNCaP baseline: —
- FGFR2_y769 phosphopeptide fold change (log2) relative to LNCaP baseline: —
- FGFR3_y760 phosphopeptide fold change (log2) relative to LNCaP baseline: —
- FRK_y387 phosphopeptide fold change (log2) relative to LNCaP baseline: —
- GSK3B_y216 phosphopeptide fold change (log2) relative to LNCaP baseline: 1.15 fold change (log2)
- IRS2_y919 phosphopeptide fold change (log2) relative to LNCaP baseline: —
- JAK1_y1022/y1023 phosphopeptide fold change (log2) relative to LNCaP baseline: —
- LAT_y200 phosphopeptide fold change (log2) relative to LNCaP baseline: —
- LAT_y255 phosphopeptide fold change (log2) relative to LNCaP baseline: —
- LCK_y394 phosphopeptide fold change (log2) relative to LNCaP baseline: —
- LTK_y772/y776/y777 phosphopeptide fold change (log2) relative to LNCaP baseline: 1.20 fold change (log2)
- MAPK10 phosphopeptide fold change (log2) relative to LNCaP baseline: —
- MAPK12_t183/y185 phosphopeptide fold change (log2) relative to LNCaP baseline: —
- MET_y1230/y1234/y1235 phosphopeptide fold change (log2) relative to LNCaP baseline: —
- MST1R_y1353 phosphopeptide fold change (log2) relative to LNCaP baseline: —
- MST1R_y1356/y1360 phosphopeptide fold change (log2) relative to LNCaP baseline: —
- NTRK2_y702/y706/y707 phosphopeptide fold change (log2) relative to LNCaP baseline: —
- PDGFRB_y579/y581 phosphopeptide fold change (log2) relative to LNCaP baseline: —
- PDGFRB_y716 phosphopeptide fold change (log2) relative to LNCaP baseline: —
- PDPK1_y9 phosphopeptide fold change (log2) relative to LNCaP baseline: —
- PDPK1_y373/y376 phosphopeptide fold change (log2) relative to LNCaP baseline: —
- PECAM1_y713 phosphopeptide fold change (log2) relative to LNCaP baseline: —
- PFKFB1_s33 phosphopeptide fold change (log2) relative to LNCaP baseline: 1.36 fold change (log2)
- PIK3R1_y607/s608 phosphopeptide fold change (log2) relative to LNCaP baseline: —
- PRRX2_y214 phosphopeptide fold change (log2) relative to LNCaP baseline: —
- PTPN11_y542 phosphopeptide fold change (log2) relative to LNCaP baseline: 2.94 fold change (log2)
- PXN_y31 phosphopeptide fold change (log2) relative to LNCaP baseline: —
- PXN_y118 phosphopeptide fold change (log2) relative to LNCaP baseline: —
- RAF1_s337/s338/y339/y340 phosphopeptide fold change (log2) relative to LNCaP baseline: 1.14 fold change (log2)
- RASA_y460 phosphopeptide fold change (log2) relative to LNCaP baseline: —
- RB1_s807/s811 phosphopeptide fold change (log2) relative to LNCaP baseline: 3.07 fold change (log2)
- RET_y1029 phosphopeptide fold change (log2) relative to LNCaP baseline: —
- SYN1_s9 phosphopeptide fold change (log2) relative to LNCaP baseline: 1.20 fold change (log2)
- TEC_y519 phosphopeptide fold change (log2) relative to LNCaP baseline: —
- ZAP70_y492/y493 phosphopeptide fold change (log2) relative to LNCaP baseline: —
